Patent US20250040548A1, “Herbicidal compositions comprising saflufenacil” (BASF SF, priority 2023, published 2025)

Assays:
SETFA = assay: Post-emergence application in greenhouse trials; assay type: in vivo, Setaria faberi; details: 7 DAT, growth stage 13, 1% MSO
Method: (§1) In the examples below, using the method of S. R. Colby (1967) “Calculating synergistic and antagonistic responses of herbicide combinations”, Weeds 15, p. 22ff., the value E, which is expected if the activity of the individual active compounds is only additive, was calculated.
(§2) [formula] • where • X=percent activity using active herbicide A at an application rate a; • Y=percent activity using active saflufenacil at an application rate b; • E=expected activity (in %) by A+B at application rates a+b.
(§3) If the value found experimentally is higher than the value E calculated according to Colby, a synergistic effect is present.
(§4) The culture containers used were plastic pots containing loamy sand with approximately 3.0% of humus as substrate. The seeds of the test plants were sown separately for each species.
(§5) For the post-emergence treatment, the test plants were grown to a plant height of from 3 to 15 cm, depending on the plant habit, and only then treated with the active compounds which had been suspended or emulsified in water. To this end, the test plants were either sown directly, and grown in the same containers, or they were first grown separately as seedlings and transplanted into the test containers a few days prior to treatment.
(§6) Depending on the species, the plants were kept at 10-25° C. and 20-35° C., respectively.
(§7) The test period extended over 2 to 4 weeks. During this time, the plants were tended and their response to the individual treatments was evaluated.
(§8) Evaluation was carried out using a scale from 0 to 100. 100 means no emergence of the plants, or complete destruction of at least the above-ground parts, and 0 means no damage or normal course of growth. A good herbicidal activity is given at values of at least 70, and very good herbicidal activity is given at values of at least 85.
(§9) Unless indicated otherwise, herbicide A and saflufenacil were formulated (50 g/I) and applied with addition of 1% MSO (methylated seed oil) as adjuvant. In the greenhouse trials, the solvent used was water (200 I/ha).

ALOMY = assay: Post-emergence application in greenhouse trials; assay type: in vivo, Alopercurus myosuroides; details: B-1 3.12 g ai/ha, 7 DAT, growth stage 21, saflufenacil as commercial 342 g/l SC formulation
Method: as §1, §2, §3, §4
For the post-emergence treatment, the test plants were grown to a plant height of from 3 to 15 cm, depending on the plant habit, and only then treated with the active compounds which had been suspended or emulsified in water. To this end, the test plants were either sown directly, and grown in the same containers, or they were first grown separately as seedlings and transplanted into the test containers a few days prior to treatment. […]
The test period extended over 2 to 4 weeks. During this time, the plants were tended and their response to the individual treatments was evaluated. […]

BRADC = assay: Post-emergence application in greenhouse trials; assay type: in vivo, Brachiaria decumbens; details: B-1 3.12 g ai/ha, growth stage 12, saflufenacil as commercial 342 g/l SC formulation
Method: as §1, §2, §3, §4, §5, §6, §7, §8, §9

ECHCG = assay: Post-emergence application in greenhouse trials; assay type: in vivo, Echinocloa crus-galli; details: B-1 3.12 g ai/ha, growth stage 13, saflufenacil as commercial 342 g/l SC formulation
Method: as §1, §2, §3, §4, §5, §6, §7, §8, §9

AVEFA = assay: Post-emergence application in field trials (Examples 2 and 3); assay type: in vivo, Avena fatua; details: 1% v/v MSO
Method: as §1, §2, §3
(§10) On field test sites, natural weed infestation or seeded weeds were treated post-emergence of the weeds.
(§11) For the post emergence treatment, the weedy plants were treated as indicated below. The herbicidal compositions were, together with the adjuvant(s) as indicated, suspended or emulsified in water (200 l/ha unless indicated otherwise) as distribution medium and sprayed with commercial flat fan nozzles.
(§12) In the following experiments, the herbicidal activity for the individual herbicidal compositions (solo and mixture applications) was assessed the indicated days after treatment (DAT). The assessments for the damage on undesired weeds caused by the composition was carried out using a scale from 0 to 100%, compared to the untreated control plants. Here, 0 means no damage and 100 means complete destruction of the plants.
(§13) For the post emergence treatment, the weedy plants were treated as indicated below. The herbicidal compositions were, together with the adjuvant(s) as indicated, suspended or emulsified in water (200 I/ha unless indicated otherwise) as distribution medium and sprayed with commercial flat fan nozzles.

CYPES = assay: as above; assay type: in vivo, Cyperus esculentus; details: B-1 12.5 g ai/ha, 21 DAT, height 15-23 cm, 140 l/ha water, 1% MSO + 2.5% ammoniumsulfate
Method: as §1, §2, §3, §10, §11
(§14) In the following experiments, the herbicidal activity for the individual herbicidal compositions (solo and mixture applications) was assessed the indicated days after treatment (DAT). The assessments for the damage on undesired weeds caused by the composition was carried out using a scale from 0 to 100%, compared to the untreated control plants. […]

ERICA = assay: as above; assay type: in vivo, Erigeron canadensis; details: 21 DAT
Method: as §1, §2, §3, §10, §11, §12, §13

ERISS = assay: as above; assay type: in vivo, Erigeron sp.; details: B-1 25 g ai/ha, 14 DAT, height 30-50 cm, 0.5% v/v MSO
Method: as §1, §2, §3, §10, §11, §12, §13

[1] = system: HORVS* (non-PPOi herbicide tolerant); assay: as above; assay type: in vivo, Hordeum vulgare; details: 1% v/v MSO
Method: as §1, §2, §3, §10, §11, §12, §13

LAMAN = assay: as above; assay type: in vivo, Lamium amplexicaule; details: height 3-18 cm, B-1 solo 25 g ai/ha, 21 DAT, 1% v/v MSO and 1% AMS (ammonium sulfate)
Method: as §1, §2, §3, §10, §11, §14

LOLRI = assay: as above; assay type: in vivo, Lolium rigidum; details: growth stage 12-22, B-1 solo 25 g ai/ha, 14 DAT, 1% v/ MSO
Method: as §1, §2, §3, §10, §11, §14

SETIT = assay: as above; assay type: in vivo, Setaria italica; details: height 21-31 cm, B-1 solo 25 g ai/ha, 22 DAT, 1% v/v MSO
Method: as §1, §2, §3, §10, §11, §14

[2] = system: SORVU* (non-PPOi herbicide tolerant); assay: as above; assay type: in vivo, Sorghum vulgare
Method: as §1, §2, §3, §10, §11, §12, §13

[3] = system: ZEAMX* (non-PPOi herbicide tolerant); assay: as above; assay type: in vivo, Zea mays; details: B-1 25 g ai/ha, 21 DAT
Method: as §1, §2, §3, §10, §11, §12, §13

## CC(C)N(C)S(=O)(=O)NC(=O)c1cc(-n2c(=O)cc(C(F)(F)F)n(C)c2=O)c(F)cc1Cl [B-1, saflufenacil]
SETFA; B-1 0.5 g ai/ha
  % Herbicidal activity: 10%
SETFA; B-1 0.8 g ai/ha
  % Herbicidal activity: 15%
SETFA; B-1 0.9 g ai/ha
  % Herbicidal activity: 15%
SETFA; B-1 1.1 g ai/ha
  % Herbicidal activity: 35%
ALOMY
  % Herbicidal activity: 25%
BRADC; 7 DAT
  % Herbicidal activity: 40%
BRADC; 21 DAT
  % Herbicidal activity: 25%
ECHCG; 7 DAT
  % Herbicidal activity: 65%
ECHCG; 21 DAT
  % Herbicidal activity: 40%
AVEFA; AVEFA, growth stage 15-16, height 25-38 cm, B-1 solo 25 g ai/ha, 16 DAT
  % Herbicidal activity: 3%
AVEFA; B-1 18 g ai/ha, 28 DAT, growth stage 14-15, height 9-16 cm, field, 100 l/ha water
  % Herbicidal activity: 0%
AVEFA; B-1 18 g ai/ha, 29 DAT, growth stage 14-23, height 24-40 cm, field, 100 l/ha water
  % Herbicidal activity: 0%
CYPES
  % Herbicidal activity: 25%
ERICA; B-1 6.25 g ai/ha, height 12.5-25 cm, field, 140 l/ha water, 1% MSO + 2.5% ammoniumsulfate
  % Herbicidal activity: 40%
ERICA; B-1 12.5 g ai/ha, height 12.5-25 cm, field, 140 l/ha water, 1% MSO + 2.5% ammoniumsulfate
  % Herbicidal activity: 73%
ERICA; ERICA, height 5-10 cm, B-1 solo 25 g ai/ha, 1% v/v MSO and 1% AMS (ammonium sulfate)
  % Herbicidal activity: 90%
ERISS
  % Herbicidal activity: 63%
[1]; B-1 18 g ai/ha, 29 DAT, growth stage 15-24, height 25-45 cm, field, 100 l/ha water
  % Herbicidal activity: 0%
[1]; HORVS* (non-PPOi herbicide tolerant), growth stage 15, height 31-43 cm, B-1 solo 25 g ai/ha, 16 DAT
  % Herbicidal activity: 3%
LAMAN
  % Herbicidal activity: 40%
LOLRI
  % Herbicidal activity: 20%
SETIT
  % Herbicidal activity: 23%
[2]; B-1 25 g ai/ha, 25 DAT, growth stage 14-15, field, 0.25 l/ha Dash MSO Max ®
  % Herbicidal activity: 3%
[2]; SORVU* (non-PPOi herbicide tolerant), height 21-31 cm, B-1 solo 25 g ai/ha, 22 DAT, 1% v/v MSO
  % Herbicidal activity: 13%
[3]; growth stage 15, 1% v/v MSO and 1% w/v ammoniumsulfate
  % Herbicidal activity: 15%
[3]; growth stage 18, 0.5% MSO
  % Herbicidal activity: 0%
